Read-outs that look alike come from different tables or passages of the source. Bridge positions count the residues as written; N and C are the ends. Square brackets hold non-standard residues; d marks the D form. Peptide text beside a SMILES is read from it. Hyp = O=C(O)[C@@H]1C[C@@H](O)CN1
Tests used:
hAMY3 receptor = target: T1, hAMY3 receptor (Homo sapiens, UniProt O60896+P30988); experiment: cAMP assay for in vitro receptor activation, hAMY3-R; format: cell-based; settings: for EC50: read-out: hAMY3R EC50
T1 sequence (P30988 25-474): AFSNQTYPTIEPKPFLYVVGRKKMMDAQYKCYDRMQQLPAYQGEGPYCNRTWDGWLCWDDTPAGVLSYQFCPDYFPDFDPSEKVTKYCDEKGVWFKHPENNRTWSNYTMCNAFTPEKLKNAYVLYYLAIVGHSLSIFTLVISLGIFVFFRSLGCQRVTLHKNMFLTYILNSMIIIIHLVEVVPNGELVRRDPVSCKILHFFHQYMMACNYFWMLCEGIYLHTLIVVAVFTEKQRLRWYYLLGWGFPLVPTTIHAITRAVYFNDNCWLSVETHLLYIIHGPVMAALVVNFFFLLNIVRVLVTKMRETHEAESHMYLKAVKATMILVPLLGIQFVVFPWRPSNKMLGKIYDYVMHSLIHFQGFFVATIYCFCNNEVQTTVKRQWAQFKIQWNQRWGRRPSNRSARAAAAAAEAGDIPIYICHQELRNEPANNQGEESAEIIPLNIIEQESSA
T1 sequence (O60896 24-148 partner): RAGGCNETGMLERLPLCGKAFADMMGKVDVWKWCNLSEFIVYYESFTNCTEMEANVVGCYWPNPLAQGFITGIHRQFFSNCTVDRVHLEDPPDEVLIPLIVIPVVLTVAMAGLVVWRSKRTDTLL
Method in brief: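 Monoclonal cell line stably overexpressing human AMY3 receptor, 2000 cells/well in DPBS with 0.05% casein and 0.5 mM IBMX. Stimulated 30 min at room temperature with graded compound doses, human amylin as positive control. cAMP accumulation read by TR-FRET after one hour.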

hAM1 receptor = hAM1 receptor (Homo sapiens, UniProt O60895+Q16602); experiment: cAMP assay for in vitro receptor activation, hAM1-R; format: cell-based; settings: for EC50: read-out: hAM1R EC50
Method in brief: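 Read-out is intracellular cAMP as a measure of receptor activation. Cells stably overexpressing hAM1 were subcloned to a monoclonal line, then thawed and seeded at 8000 cells/well in DPBS with 0.05% casein and the phosphodiesterase inhibitor IBMX at 0.5 mM.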

[1] = Physical stability of peptide analogues (Thioflavin T fibrillation); format: physicochemical; settings: maximum ThT signal normalized between hAMY maximum and buffer background; 40° C., shaking, four days; pH 7 per table title
Method in brief: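 ThT fluorescence (450 nm excitation, 480 nm emission; 4 μM dye) was read every 10 min over four days at 40° C under 700 rpm shaking stress, after 1 h in pH 4 acetate or pH 7 phosphate (50 mM). Peak smoothed signal expressed as percent, scaled between buffer background and hAMY maximum.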

hAM1 receptor, sequence (Q16602 23-461): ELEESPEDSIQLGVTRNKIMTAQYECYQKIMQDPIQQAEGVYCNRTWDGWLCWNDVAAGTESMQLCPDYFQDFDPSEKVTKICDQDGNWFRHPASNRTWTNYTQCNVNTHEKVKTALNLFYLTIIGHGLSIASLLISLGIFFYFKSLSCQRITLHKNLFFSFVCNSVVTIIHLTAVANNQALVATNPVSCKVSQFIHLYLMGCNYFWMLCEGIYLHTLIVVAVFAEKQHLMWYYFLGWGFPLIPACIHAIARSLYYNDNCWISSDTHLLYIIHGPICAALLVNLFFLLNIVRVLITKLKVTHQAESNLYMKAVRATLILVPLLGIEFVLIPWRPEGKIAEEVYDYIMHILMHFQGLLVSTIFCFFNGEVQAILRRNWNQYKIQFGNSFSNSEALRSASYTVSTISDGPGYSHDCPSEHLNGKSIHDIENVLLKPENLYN
hAM1 receptor, sequence (O60895 43-175 partner): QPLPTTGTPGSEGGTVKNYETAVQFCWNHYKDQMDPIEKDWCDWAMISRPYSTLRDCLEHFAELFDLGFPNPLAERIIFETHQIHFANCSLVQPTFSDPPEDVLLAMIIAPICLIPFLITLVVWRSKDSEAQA

Compound	EC50 (hAMY3 receptor; cAMP accumulation, cells stably overexpressing hAMY3 receptor, 30 min stimulation) [pM]	improvement of potency on AMY3R compared to hAM15-52 (hAMY3 receptor; relative to SEQ ID NO: 1)	EC50 (hAM1 receptor; cAMP accumulation, cells stably overexpressing hAM1 receptor, 30 min stimulation) [µM]	decrease of potency on AM1R compared to hAM15-52 (hAM1 receptor; relative to SEQ ID NO: 1)	Max ThT signal (%) [1] [%]	EC50 (hAMY3 receptor; cAMP assay, hAMY3 receptor) [pM]	EC50 (hAM1 receptor; cAMP assay, hAM1 receptor) [µM]
CC[C@H](C)[C@H](NC(=O)[C@H](CCC(N)=O)NC(=O)[C@H](Cc1c[nH]cn1)NC(=O)[C@H](C)NC(=O)[C@H](CC(C)C)NC(=O)[C@H](CCCNC(=N)N)NC(=O)[C@H](CCC(N)=O)NC(=O)[C@@H](NC(=O)[C@@H](NC(=O)[C@@H]1CSSC[C@H](NC(=O)CN)C(=O)N[C@@H](CCCNC(=N)N)C(=O)N[C@@H](Cc2ccccc2)C(=O)NCC(=O)N[C@@H]([C@@H](C)O)C(=O)N1)[C@@H](C)O)C(C)C)C(=O)N[C@@H](Cc1ccc(O)cc1)C(=O)N[C@@H](CCC(N)=O)C(=O)N[C@@H](Cc1ccccc1)C(=O)N[C@H](C(=O)N[C@@H](CC(=O)O)C(=O)N[C@@H](CCCCN)C(=O)N[C@@H](CC(=O)O)C(=O)N[C@@H](CCCCN)C(=O)N[C@@H](CC(=O)O)C(=O)N[C@@H](CC(N)=O)C(=O)N[C@H](C(=O)N[C@@H](C)C(=O)N1CCC[C@H]1C(=O)N[C@@H](CCCNC(=N)N)C(=O)N[C@@H](CO)C(=O)N[C@@H](CCCCN)C(=O)N[C@H](C(=O)N[C@@H](CO)C(=O)N1CCC[C@H]1C(=O)N[C@@H](CCC(N)=O)C(=O)NCC(=O)N1C[C@H](O)C[C@H]1C(N)=O)[C@@H](C)CC)C(C)C)[C@@H](C)O [SEQ ID NO: 169, GCRFGTCTVQRLAHQIYQFTDKDKDNVAPRSKISPQG Hyp] (H-GCRFGTCTVQRLAHQIYQFTDKDKDNVAPRSKISPQG[Hyp]-NH2; disulfide 2-7; N-terminus assumed)	63	approximately 20 fold	2.98	approximately 2500 fold	2.700	–	–
CC[C@H](C)[C@H](NC(=O)[C@H](CCC(N)=O)NC(=O)[C@H](C)NC(=O)[C@H](C)NC(=O)[C@H](CC(C)C)NC(=O)[C@H](CCCNC(=N)N)NC(=O)[C@H](CCC(N)=O)NC(=O)[C@@H](NC(=O)[C@@H](NC(=O)[C@@H]1CSSC[C@H](NC(=O)[C@@H](N)CCCCN)C(=O)N[C@@H](CC(N)=O)C(=O)N[C@@H]([C@@H](C)O)C(=O)N[C@@H](C)C(=O)N[C@@H]([C@@H](C)O)C(=O)N1)[C@@H](C)O)C(C)C)C(=O)N[C@@H](Cc1ccc(O)cc1)C(=O)N[C@@H](CCC(N)=O)C(=O)N[C@@H](Cc1ccccc1)C(=O)N[C@H](C(=O)N[C@@H](CC(=O)O)C(=O)N[C@@H](CCCCN)C(=O)N[C@@H](CC(=O)O)C(=O)N[C@@H](CCCCN)C(=O)N[C@@H](CC(=O)O)C(=O)N[C@@H](CC(N)=O)C(=O)N[C@H](C(=O)N[C@@H](C)C(=O)N1CCC[C@H]1C(=O)N1CCC[C@H]1C(=O)N[C@H](C(=O)N[C@@H](CC(N)=O)C(=O)N[C@H](C(=O)NCC(=O)N[C@@H](CO)C(=O)N[C@@H](CC(N)=O)C(=O)NCC(=O)N1C[C@H](O)C[C@H]1C(N)=O)C(C)C)[C@@H](C)O)C(C)C)[C@@H](C)O [compound 7] (H-KCNTATCTVQRLAAQIYQFTDKDKDNVAPPTNVGSNG[Hyp]-NH2; disulfide 2-7; N-terminus assumed)	–	–	–	–	2.800	6	> 5
CC[C@H](C)[C@H](NC(=O)[C@H](C)NC(=O)[C@H](Cc1c[nH]cn1)NC(=O)[C@H](C)NC(=O)[C@H](CC(C)C)NC(=O)[C@H](CCCNC(=N)N)NC(=O)[C@H](CCC(N)=O)NC(=O)[C@@H](NC(=O)[C@@H](NC(=O)[C@@H]1CSSC[C@H](NC(=O)[C@@H](N)CCCCN)C(=O)N[C@@H](CC(N)=O)C(=O)N[C@@H]([C@@H](C)O)C(=O)N[C@@H](C)C(=O)N[C@@H]([C@@H](C)O)C(=O)N1)[C@@H](C)O)C(C)C)C(=O)N[C@@H](Cc1ccc(O)cc1)C(=O)N[C@@H](CCC(N)=O)C(=O)N[C@@H](Cc1ccccc1)C(=O)N[C@H](C(=O)N[C@@H](CC(=O)O)C(=O)N[C@@H](CCCCN)C(=O)N[C@@H](CC(=O)O)C(=O)N[C@@H](CCCCN)C(=O)N[C@@H](CC(=O)O)C(=O)N[C@@H](CC(N)=O)C(=O)N[C@H](C(=O)N[C@@H](C)C(=O)N1CCC[C@H]1C(=O)N1CCC[C@H]1C(=O)N[C@H](C(=O)N[C@@H](CC(N)=O)C(=O)N[C@H](C(=O)NCC(=O)N[C@@H](CO)C(=O)N[C@@H](CC(N)=O)C(=O)NCC(=O)N1C[C@H](O)C[C@H]1C(N)=O)C(C)C)[C@@H](C)O)C(C)C)[C@@H](C)O [compound 13] (H-KCNTATCTVQRLAHAIYQFTDKDKDNVAPPTNVGSNG[Hyp]-NH2; disulfide 2-7; N-terminus assumed)	–	–	–	–	5.000	7	> 5
CC[C@H](C)[C@H](NC(=O)[C@H](CCC(N)=O)NC(=O)[C@H](Cc1c[nH]cn1)NC(=O)[C@H](C)NC(=O)[C@H](CC(C)C)NC(=O)[C@H](CCCNC(=N)N)NC(=O)[C@H](CCC(N)=O)NC(=O)[C@@H](NC(=O)[C@@H](NC(=O)[C@@H]1CSSC[C@H](NC(=O)[C@@H](N)CCCCN)C(=O)N[C@@H](CC(N)=O)C(=O)N[C@@H]([C@@H](C)O)C(=O)N[C@@H](C)C(=O)N[C@@H]([C@@H](C)O)C(=O)N1)[C@@H](C)O)C(C)C)C(=O)N[C@@H](C)C(=O)N[C@@H](CCC(N)=O)C(=O)N[C@@H](Cc1ccccc1)C(=O)N[C@H](C(=O)N[C@@H](CC(=O)O)C(=O)N[C@@H](CCCCN)C(=O)N[C@@H](CC(=O)O)C(=O)N[C@@H](CCCCN)C(=O)N[C@@H](CC(=O)O)C(=O)N[C@@H](CC(N)=O)C(=O)N[C@H](C(=O)N[C@@H](C)C(=O)N1CCC[C@H]1C(=O)N1CCC[C@H]1C(=O)N[C@H](C(=O)N[C@@H](CC(N)=O)C(=O)N[C@H](C(=O)NCC(=O)N[C@@H](CO)C(=O)N[C@@H](CC(N)=O)C(=O)NCC(=O)N1C[C@H](O)C[C@H]1C(N)=O)C(C)C)[C@@H](C)O)C(C)C)[C@@H](C)O [compound 14] (H-KCNTATCTVQRLAHQIAQFTDKDKDNVAPPTNVGSNG[Hyp]-NH2; disulfide 2-7; N-terminus assumed)	–	–	–	–	3.100	7	> 5
CC[C@H](C)[C@H](NC(=O)[C@H](CCC(N)=O)NC(=O)[C@H](Cc1c[nH]cn1)NC(=O)[C@H](C)NC(=O)[C@H](CC(C)C)NC(=O)[C@H](CCCNC(=N)N)NC(=O)[C@H](CCC(N)=O)NC(=O)[C@@H](NC(=O)[C@@H](NC(=O)[C@@H]1CSSC[C@H](NC(=O)[C@@H](N)CCCCN)C(=O)N[C@@H](CC(N)=O)C(=O)N[C@@H]([C@@H](C)O)C(=O)N[C@@H](C)C(=O)N[C@@H]([C@@H](C)O)C(=O)N1)[C@@H](C)O)C(C)C)C(=O)N[C@@H](Cc1ccc(O)cc1)C(=O)N[C@@H](CCC(N)=O)C(=O)N[C@@H](Cc1ccccc1)C(=O)N[C@H](C(=O)N[C@@H](CC(=O)O)C(=O)N[C@@H](CCCCN)C(=O)N[C@@H](CC(=O)O)C(=O)N[C@@H](CCCCN)C(=O)N[C@@H](CC(=O)O)C(=O)N[C@@H](CC(N)=O)C(=O)N[C@H](C(=O)N[C@@H](C)C(=O)N1CCC[C@H]1C(=O)N[C@@H](CCCNC(=N)N)C(=O)N[C@H](C(=O)N[C@@H](CCCCN)C(=O)N[C@H](C(=O)NCC(=O)N[C@@H](CO)C(=O)N[C@@H](CC(N)=O)C(=O)NCC(=O)N1C[C@H](O)C[C@H]1C(N)=O)C(C)C)[C@@H](C)O)C(C)C)[C@@H](C)O [compound 20] (H-KCNTATCTVQRLAHQIYQFTDKDKDNVAPRTKVGSNG[Hyp]-NH2; disulfide 2-7; N-terminus assumed)	–	–	–	–	9.100	8	> 5
CC[C@H](C)[C@H](NC(=O)[C@H](CCC(N)=O)NC(=O)[C@H](Cc1c[nH]cn1)NC(=O)[C@H](C)NC(=O)[C@H](CC(C)C)NC(=O)[C@H](CCCNC(=N)N)NC(=O)[C@H](CCC(N)=O)NC(=O)[C@@H](NC(=O)[C@@H](NC(=O)[C@@H]1CSSC[C@H](NC(=O)[C@@H](N)CCCCN)C(=O)N[C@@H](CC(N)=O)C(=O)N[C@@H]([C@@H](C)O)C(=O)N[C@@H](C)C(=O)N[C@@H]([C@@H](C)O)C(=O)N1)[C@@H](C)O)C(C)C)C(=O)N[C@@H](Cc1ccc(O)cc1)C(=O)N[C@@H](CCC(N)=O)C(=O)N[C@@H](Cc1ccccc1)C(=O)N[C@@H](C)C(=O)N[C@@H](CC(=O)O)C(=O)N[C@@H](CCCCN)C(=O)N[C@@H](CC(=O)O)C(=O)N[C@@H](CCCCN)C(=O)N[C@@H](CC(=O)O)C(=O)N[C@@H](CC(N)=O)C(=O)N[C@H](C(=O)N[C@@H](C)C(=O)N1CCC[C@H]1C(=O)N1CCC[C@H]1C(=O)N[C@H](C(=O)N[C@@H](CC(N)=O)C(=O)N[C@H](C(=O)NCC(=O)N[C@@H](CO)C(=O)N[C@@H](CC(N)=O)C(=O)NCC(=O)N1C[C@H](O)C[C@H]1C(N)=O)C(C)C)[C@@H](C)O)C(C)C [compound 23] (H-KCNTATCTVQRLAHQIYQFADKDKDNVAPPTNVGSNG[Hyp]-NH2; disulfide 2-7)	–	–	–	–	4.200	8	> 5
